Assay results reported in the supplement of paper PMC11451515.

What was measured:
Conditions in all cases: 48 h
SEM cells [1] = test: AUC of viability dose-response curve (% viability x log10 dose units); higher = less sensitive
In short: (§1)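 Leukemia cells adapted to each medium (500 or 1000 cells/well, 1536-well plates) were exposed to library compounds in DMSO for 48 h at 37°C at 11 threefold doses, 47 μM to 0.79 nM. Luminescence by CellTiter-Glo One was normalised per plate to DMSO and cell-free wells, then fitted with a four-parameter log-logistic curve on log10 dose. Curves above full viability were scaled and quality-control failures removed before area under the curve was integrated by trapezoidal rule.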

NOMO1 = test: as above
In short: as §1

P12-Ichikawa = test: as above
In short: as §1

SEM cells [2] = test: cell viability relative to DMSO control; higher = less cytotoxic
In short: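 Cells were incubated for 48 h at 37°C before CellTiter-Glo One luminescence was read. The cells were NOMO1 or SEM (500 cells/well) or P12-Ichikawa (1000 cells/well) leukemia cells, adapted for at least four passages in each medium and seeded in 1536-well plates (5 μl). Dosing used library compounds in DMSO applied by pin over 11 threefold points, 47 μM to 0.79 nM. Viability is the per-plate percentage of DMSO wells, with cell-free wells as background.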

[3] = RPMI 5 mM glucose + 10% dialyzed FBS
[4] = HPLM + 10% dialyzed FBS, 0.000781 µM
[5] = HPLM + 10% dialyzed FBS, 0.00234 µM
[6] = HPLM + 10% dialyzed FBS, 0.00702 µM
[7] = HPLM + 10% dialyzed FBS, 0.0211 µM
[8] = HPLM + 10% dialyzed FBS, 0.0632 µM
[9] = HPLM + 10% dialyzed FBS, 0.19 µM
[10] = HPLM + 10% dialyzed FBS, 0.569 µM
[11] = HPLM + 10% dialyzed FBS, 1.71 µM
[12] = HPLM + 10% dialyzed FBS, 5.12 µM
[13] = HPLM + 10% dialyzed FBS, 15.4 µM
[14] = HPLM + 10% dialyzed FBS, 46.1 µM
[15] = RPMI 5 mM glucose + 10% FBS, 0.000781 µM
[16] = RPMI 5 mM glucose + 10% FBS, 0.00234 µM
[17] = RPMI 5 mM glucose + 10% FBS, 0.00702 µM
[18] = RPMI 5 mM glucose + 10% FBS, 0.0211 µM
[19] = RPMI 5 mM glucose + 10% FBS, 0.0632 µM
[20] = RPMI 5 mM glucose + 10% FBS, 0.19 µM
[21] = RPMI 5 mM glucose + 10% FBS, 0.569 µM
[22] = RPMI 5 mM glucose + 10% FBS, 1.71 µM
[23] = RPMI 5 mM glucose + 10% FBS, 5.12 µM
[24] = RPMI 5 mM glucose + 10% FBS, 15.4 µM
[25] = RPMI 5 mM glucose + 10% FBS, 46.1 µM

| Structure (SMILES) | AUC of viability dose-response curve (SEM cells [1]; HPLM + 10% dialyzed FBS) | AUC of viability dose-response curve (SEM cells [1]; RPMI 5 mM glucose + 10% FBS) | AUC of viability dose-response curve (SEM cells [1]; [3]) | AUC of viability dose-response curve (NOMO1; HPLM + 10% dialyzed FBS) | AUC of viability dose-response curve (NOMO1; RPMI 5 mM glucose + 10% FBS) | AUC of viability dose-response curve (NOMO1; [3]) | AUC of viability dose-response curve (P12-Ichikawa; HPLM + 10% dialyzed FBS) | AUC of viability dose-response curve (P12-Ichikawa; RPMI 5 mM glucose + 10% FBS) | AUC of viability dose-response curve (P12-Ichikawa; [3]) | cell viability (SEM cells [2]; [4]) [%] | cell viability (SEM cells [2]; [5]) [%] | cell viability (SEM cells [2]; [6]) [%] | cell viability (SEM cells [2]; [7]) [%] | cell viability (SEM cells [2]; [8]) [%] | cell viability (SEM cells [2]; [9]) [%] | cell viability (SEM cells [2]; [10]) [%] | cell viability (SEM cells [2]; [11]) [%] | cell viability (SEM cells [2]; [12]) [%] | cell viability (SEM cells [2]; [13]) [%] | cell viability (SEM cells [2]; [14]) [%] | cell viability (SEM cells [2]; [15]) [%] | cell viability (SEM cells [2]; [16]) [%] | cell viability (SEM cells [2]; [17]) [%] | cell viability (SEM cells [2]; [18]) [%] | cell viability (SEM cells [2]; [19]) [%] | cell viability (SEM cells [2]; [20]) [%] | cell viability (SEM cells [2]; [21]) [%] | cell viability (SEM cells [2]; [22]) [%] | cell viability (SEM cells [2]; [23]) [%] | cell viability (SEM cells [2]; [24]) [%] | cell viability (SEM cells [2]; [25]) [%] |
| --- | --- | --- | --- | --- | --- | --- | --- | --- | --- | --- | --- | --- | --- | --- | --- | --- | --- | --- | --- | --- | --- | --- | --- | --- | --- | --- | --- | --- | --- | --- | --- |
| O=C(Nc1cccc(Cl)c1)Nc1ncc(CCNc2ncnc3ccsc23)s1 | 301 | 272 | 274 | 362 | 374 | 385 | 290 | 306 | 301 |  |  |  |  |  |  |  |  |  |  |  |  |  |  |  |  |  |  |  |  |  |  |
| COC(=O)Nc1ccc(-c2nc(N3CCOCC3)c3cnn(C4CCN(C(=O)OC)CC4)c3n2)cc1 | 337 | 375 | 382 | 337 | 392 | 336 | 343 | 339 | 331 |  |  |  |  |  |  |  |  |  |  |  |  |  |  |  |  |  |  |  |  |  |  |
| O=C1c2c(O)cc(O)cc2O[C@H](c2ccc(O)c(O)c2)[C@H]1O | 454 | 470 | 450 | 469 | 475 | 453 | 459 | 453 | 465 | 113 | 120 | 132 | 113 | 117 | 125 | 127 | 143 | 126 | 127 | 131 | 121 | 123 | 136 | 150 | 126 | 126 | 122 | 122 | 127 | 125 | 128 |
| Cn1cc(CNCC2CCN(c3ncc(C(=O)NO)cn3)CC2)c2ccccc21 | 231 | 238 | 239 | 268 | 276 | 271 | 262 | 255 | 273 |  |  |  |  |  |  |  |  |  |  |  |  |  |  |  |  |  |  |  |  |  |  |
| O=C(Nc1ccccc1Br)N[C@@H]1CCN(c2ccc(C(F)(F)F)cn2)C1 | 469 | 461 | 469 | 448 | 432 | 447 | 448 | 443 | 454 | 119 | 121 | 136 | 131 | 127 | 121 | 126 | 133 | 122 | 120 | 117 | 117 | 94.6 | 107 | 122 | 113 | 112 | 105 | 112 | 98.9 | 106 | 85 |
